According to patent US9371265B2, “Compositions and methods related to inhibitors of JAK kinase” (EP PHARMA, INC., priority 2012, dated 2016):

How the values were obtained:
[1] = molecular target: KIT (Homo sapiens, UniProt P10721); test: Kinase panel: KIT; format: biochemical; details: 10 μM EP009
Experimental: (§1) Achieving JAK3 selectivity remains a significant challenge in the development of new small molecules for the treatment of cancer and immune-derived diseases. As such, the inventors employed cell-based screening assays of small-molecule libraries based upon the chemical scaffold of the established JAK3 inhibitor NC1153 (Stepkowski et al., J Immunol. (2005), 175(7):4236-4246) EP009 (FIG. 2A) was selected as a lead compound due to improved intrinsic stability (>95% purity in various solvents at 37° C. for 24 hours; FIG. 3) and high-degree of JAK3 selectivity. To test JAK3 versus JAK2 specificity of EP009, the IL-2/JAK3-dependent Kit225, and IL-3/JAK2-dependent BaF/3 cell lines were used. Kit225 and BaF/3 cells growing in the presence of IL-2 or IL-3, respectively, were treated with ascending concentrations of EP009 for 12 hours and cellular JAK3 and JAK2 tyrosine phosphorylation levels detected by Western blot analysis (FIGS. 2B and 2C). Following densitometric analysis, EP009 was determined to dose-dependently reduce IL-2-mediated JAK3 tyrosine phosphorylation with a cellular 50% inhibitory concentration (IC50) between 10 and 20 μM (FIG. 2B). […] To globally evaluate specificity, the inhibitory activity of EP009 was measured against a panel of protein kinases distributed throughout the kinome using the scanEDGE profiling service (KINOMEscan). […]

[2] = molecular target: PDGFRB (Homo sapiens, UniProt P09619); test: Kinase panel: PDGFRB; format: biochemical; details: 10 μM EP009
Experimental: as §1

[3] = molecular target: PKAC-alpha (Homo sapiens, UniProt P17612); test: Kinase panel: PKAC-alpha; format: biochemical; details: 10 μM EP009
Experimental: as §1

[4] = molecular target: ERBB4 (Homo sapiens, UniProt Q15303); test: Kinase panel: ERBB4; format: biochemical; details: 10 μM EP009
Experimental: as §1

[5] = molecular target: PCTK1 (Homo sapiens, UniProt Q00536); test: Kinase panel: PCTK1; format: biochemical; details: 10 μM EP009
Experimental: as §1

[6] = molecular target: VEGFR2 (Homo sapiens, UniProt P35968); test: Kinase panel: VEGFR2; format: biochemical; details: 10 μM EP009
Experimental: as §1

[7] = molecular target: ABL1(T315I)-phosphorylated (Homo sapiens, UniProt P00519, T315I); test: Kinase panel: ABL1(T315I)-phosphorylated; format: biochemical; details: 10 μM EP009
Experimental: as §1

[8] = molecular target: JNK3 (Homo sapiens, UniProt P53779); test: Kinase panel: JNK3; format: biochemical; details: 10 μM EP009
Experimental: as §1

[9] = molecular target: KIT(D816V) (Homo sapiens, UniProt P10721, D816V); test: Kinase panel: KIT(D816V); format: biochemical; details: 10 μM EP009
Experimental: as §1

[10] = molecular target: CSF1R (Homo sapiens, UniProt P07333); test: Kinase panel: CSF1R; format: biochemical; details: 10 μM EP009
Experimental: as §1

[11] = molecular target: T1, immunopurified JAK3 (Homo sapiens, UniProt P52333); test: In vitro JAK3 autokinase assay; format: biochemical; details: 1 μM ATP, densitometry analysis
T1 construct: immunopurified JAK3 from YT cells resuspended in kinase buffer; endogenous in cells; host or cells: YT cells (immunoprecipitate)

[12] = molecular target: SNARK (Homo sapiens, UniProt Q9H093); test: Kinase panel: SNARK; format: biochemical; details: 10 μM EP009
Experimental: as §1

[13] = molecular target: PIK3CA (Homo sapiens, UniProt P42336); test: Kinase panel: PIK3CA; format: biochemical; details: 10 μM EP009
Experimental: as §1

[14] = molecular target: CDK7 (Homo sapiens, UniProt P50613); test: Kinase panel: CDK7; format: biochemical; details: 10 μM EP009
Experimental: as §1

[15] = molecular target: AURKB (Homo sapiens, UniProt Q96GD4); test: Kinase panel: AURKB; format: biochemical; details: 10 μM EP009
Experimental: as §1

[16] = test system: PARP; test: PARP cleavage in SU-DHL-1 cells (Luminex multiplex); format: cell-based, human; details: 24 hours, dose-dependent
Experimental: FIGS. 7A-7C. EP009 reduces ALCL cell viability through induction of caspase 3 mediated apoptosis. (A) SUP-M2, SU-DHL-1 or H2228 cells were cultured with increasing amounts of EP009 (0-10 μM) for 72 hours and cell viability measured with the MTS tetrazolium salt assay. Values represent mean absorbance (OD490-OD650 nm) normalized to vehicle (PBS) treated control cells, while error bars represent the standard deviation (n=3). (B) SU-DHL-1 cells were treated with vehicle (PBS) or increasing amounts of EP009 (0-50 μM) for 24 hours. Cells were then lysed, clarified, and subjected to Luminex multiplex analysis to detect activated caspase 3 and (C) cleaved PARP. Values represent MFI normalized to corresponding GAPDH MFI, while error bars represent the standard deviation (n=2). Representative data from three independent experiments are shown. Statistical significance was determined using Student's t-test. (*, p<0.05).
The MILLIPLEX MAP 8-plex Multi-Pathway Signaling Phosphoprotein kit (Millipore) was used to detect phosphorylated ERK1/2 (Thr185/Tyr187), STAT3 (Ser727), JNK1/2 (Thr183/Tyr185), p70 S6 kinase (Thr412), IκBα (Ser32), STAT5A/B (Tyr694/699), CREB (Ser133), and p38 (Thr180/Tyr182). The MILLIPLEX MAP 5-plex STAT Phosphoprotein kit (Millipore) was used to detect phosphorylated STAT1 (Tyr701), STAT2 (Tyr690), STAT3 (Tyr705), STAT5A/B (Tyr694/699), and STAT6 (Tyr641). […]

Chain of JNK3 (P53779 whole entry): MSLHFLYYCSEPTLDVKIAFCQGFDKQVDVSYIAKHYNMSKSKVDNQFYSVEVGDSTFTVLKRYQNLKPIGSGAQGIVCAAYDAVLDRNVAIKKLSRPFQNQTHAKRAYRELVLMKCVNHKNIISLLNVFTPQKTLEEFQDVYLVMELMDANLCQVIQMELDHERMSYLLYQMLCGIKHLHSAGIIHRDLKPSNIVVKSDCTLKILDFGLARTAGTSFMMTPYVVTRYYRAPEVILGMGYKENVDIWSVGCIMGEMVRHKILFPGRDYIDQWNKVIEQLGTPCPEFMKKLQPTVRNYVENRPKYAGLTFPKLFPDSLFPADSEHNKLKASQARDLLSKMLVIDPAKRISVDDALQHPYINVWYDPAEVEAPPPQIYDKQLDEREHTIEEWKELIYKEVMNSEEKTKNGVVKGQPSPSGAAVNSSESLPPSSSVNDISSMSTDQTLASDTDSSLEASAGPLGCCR
Chain of KIT(D816V) (P10721 26-976 D816V): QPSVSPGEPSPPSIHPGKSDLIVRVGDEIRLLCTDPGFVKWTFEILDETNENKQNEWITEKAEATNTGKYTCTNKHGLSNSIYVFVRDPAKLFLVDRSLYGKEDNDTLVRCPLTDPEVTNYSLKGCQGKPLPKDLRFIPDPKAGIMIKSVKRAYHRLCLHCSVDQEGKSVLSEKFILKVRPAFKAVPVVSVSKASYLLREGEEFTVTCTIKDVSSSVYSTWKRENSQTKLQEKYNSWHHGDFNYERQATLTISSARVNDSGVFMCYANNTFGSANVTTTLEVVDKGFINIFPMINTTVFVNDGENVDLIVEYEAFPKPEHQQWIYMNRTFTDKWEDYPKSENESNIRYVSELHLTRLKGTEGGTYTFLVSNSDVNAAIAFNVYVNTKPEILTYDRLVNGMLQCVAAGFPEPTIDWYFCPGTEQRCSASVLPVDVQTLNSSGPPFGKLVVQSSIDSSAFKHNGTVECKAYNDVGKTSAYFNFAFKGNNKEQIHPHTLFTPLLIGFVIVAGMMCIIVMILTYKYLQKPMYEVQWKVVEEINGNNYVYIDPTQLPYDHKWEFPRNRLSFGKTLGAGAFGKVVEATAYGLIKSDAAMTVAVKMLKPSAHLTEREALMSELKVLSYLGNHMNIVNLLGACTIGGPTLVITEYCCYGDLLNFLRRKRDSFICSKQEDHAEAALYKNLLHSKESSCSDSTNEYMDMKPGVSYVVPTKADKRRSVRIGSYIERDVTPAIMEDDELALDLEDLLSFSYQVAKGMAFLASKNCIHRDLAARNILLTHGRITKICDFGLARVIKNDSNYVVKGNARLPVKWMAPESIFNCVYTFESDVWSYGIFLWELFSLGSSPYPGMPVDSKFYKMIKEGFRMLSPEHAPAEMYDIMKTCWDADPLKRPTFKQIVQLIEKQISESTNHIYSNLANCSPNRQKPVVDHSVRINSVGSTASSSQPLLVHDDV
Chain of SNARK (Q9H093 whole entry): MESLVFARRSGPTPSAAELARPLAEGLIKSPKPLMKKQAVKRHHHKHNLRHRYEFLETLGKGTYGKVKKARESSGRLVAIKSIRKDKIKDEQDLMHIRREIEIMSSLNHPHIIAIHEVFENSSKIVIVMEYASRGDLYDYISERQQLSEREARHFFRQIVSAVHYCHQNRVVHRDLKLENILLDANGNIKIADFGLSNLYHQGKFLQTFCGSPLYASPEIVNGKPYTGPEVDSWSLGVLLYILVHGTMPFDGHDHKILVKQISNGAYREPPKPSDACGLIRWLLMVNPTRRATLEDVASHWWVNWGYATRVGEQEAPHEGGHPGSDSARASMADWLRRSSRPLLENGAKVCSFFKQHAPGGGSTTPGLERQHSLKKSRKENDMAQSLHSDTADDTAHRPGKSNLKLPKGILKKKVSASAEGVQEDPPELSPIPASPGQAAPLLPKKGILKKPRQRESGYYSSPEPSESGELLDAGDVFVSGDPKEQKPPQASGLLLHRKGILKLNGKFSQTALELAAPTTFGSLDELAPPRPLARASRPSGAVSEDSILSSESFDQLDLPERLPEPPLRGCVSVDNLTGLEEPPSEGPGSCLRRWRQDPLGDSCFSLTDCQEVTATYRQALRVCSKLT
Chain of ERBB4 (Q15303 26-1308): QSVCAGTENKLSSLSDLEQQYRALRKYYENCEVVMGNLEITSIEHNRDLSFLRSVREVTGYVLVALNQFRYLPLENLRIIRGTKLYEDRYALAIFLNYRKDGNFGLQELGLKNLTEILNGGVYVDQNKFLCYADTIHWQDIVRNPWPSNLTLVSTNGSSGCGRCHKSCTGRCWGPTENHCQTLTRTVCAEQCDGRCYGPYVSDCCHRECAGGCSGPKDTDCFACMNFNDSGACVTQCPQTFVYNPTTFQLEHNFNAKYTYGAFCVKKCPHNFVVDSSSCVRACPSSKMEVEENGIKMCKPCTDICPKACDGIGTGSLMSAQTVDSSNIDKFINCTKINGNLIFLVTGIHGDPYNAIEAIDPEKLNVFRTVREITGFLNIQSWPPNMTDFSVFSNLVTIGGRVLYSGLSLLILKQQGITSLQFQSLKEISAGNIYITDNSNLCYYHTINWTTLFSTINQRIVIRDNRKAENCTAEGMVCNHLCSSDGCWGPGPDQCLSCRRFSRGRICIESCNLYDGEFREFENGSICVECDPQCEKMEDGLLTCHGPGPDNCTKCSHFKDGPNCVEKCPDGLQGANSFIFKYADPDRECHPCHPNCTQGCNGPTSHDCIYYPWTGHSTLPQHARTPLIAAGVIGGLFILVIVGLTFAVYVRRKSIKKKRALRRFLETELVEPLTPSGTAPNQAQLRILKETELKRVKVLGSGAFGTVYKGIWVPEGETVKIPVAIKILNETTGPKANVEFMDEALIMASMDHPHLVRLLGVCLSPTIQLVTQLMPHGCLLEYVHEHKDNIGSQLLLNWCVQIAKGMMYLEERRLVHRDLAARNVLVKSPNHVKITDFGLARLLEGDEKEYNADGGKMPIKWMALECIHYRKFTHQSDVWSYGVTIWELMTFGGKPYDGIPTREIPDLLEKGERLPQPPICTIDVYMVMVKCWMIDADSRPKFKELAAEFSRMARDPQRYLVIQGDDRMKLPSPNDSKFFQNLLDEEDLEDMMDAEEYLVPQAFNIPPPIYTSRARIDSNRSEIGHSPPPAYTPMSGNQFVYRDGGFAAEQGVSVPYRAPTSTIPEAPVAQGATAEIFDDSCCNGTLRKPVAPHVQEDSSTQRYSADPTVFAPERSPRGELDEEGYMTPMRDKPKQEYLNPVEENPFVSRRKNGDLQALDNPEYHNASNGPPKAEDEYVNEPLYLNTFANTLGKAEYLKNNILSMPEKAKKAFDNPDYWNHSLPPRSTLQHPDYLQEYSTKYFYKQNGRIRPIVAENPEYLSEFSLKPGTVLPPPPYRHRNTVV
Chain of KIT (P10721 26-976): as the sequence (P10721 26-976 D816V) above, with V791D counted along it
Chain of CDK7 (P50613 whole entry): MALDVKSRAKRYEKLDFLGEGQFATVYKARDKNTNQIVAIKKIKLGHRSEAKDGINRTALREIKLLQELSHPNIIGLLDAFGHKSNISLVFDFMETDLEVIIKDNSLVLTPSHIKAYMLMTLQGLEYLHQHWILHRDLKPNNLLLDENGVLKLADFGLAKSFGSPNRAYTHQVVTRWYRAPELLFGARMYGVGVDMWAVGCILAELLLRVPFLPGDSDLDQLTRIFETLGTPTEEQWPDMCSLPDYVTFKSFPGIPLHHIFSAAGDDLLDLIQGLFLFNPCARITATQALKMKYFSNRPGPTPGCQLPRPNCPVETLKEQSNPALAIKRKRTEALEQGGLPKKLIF
Chain of PCTK1 (Q00536 whole entry): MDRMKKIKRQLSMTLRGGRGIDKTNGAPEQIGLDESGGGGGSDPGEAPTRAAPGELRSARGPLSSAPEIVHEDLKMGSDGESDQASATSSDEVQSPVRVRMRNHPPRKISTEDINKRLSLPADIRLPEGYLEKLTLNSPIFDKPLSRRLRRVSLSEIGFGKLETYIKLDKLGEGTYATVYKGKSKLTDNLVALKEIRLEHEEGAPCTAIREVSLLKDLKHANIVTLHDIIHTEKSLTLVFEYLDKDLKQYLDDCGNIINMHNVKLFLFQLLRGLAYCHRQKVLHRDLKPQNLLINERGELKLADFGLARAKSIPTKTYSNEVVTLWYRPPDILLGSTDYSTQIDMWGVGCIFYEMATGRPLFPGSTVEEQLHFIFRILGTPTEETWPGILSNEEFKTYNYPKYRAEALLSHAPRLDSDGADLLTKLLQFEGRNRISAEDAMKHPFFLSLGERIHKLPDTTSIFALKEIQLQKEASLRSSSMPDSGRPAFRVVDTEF
Chain of AURKB (Q96GD4 whole entry): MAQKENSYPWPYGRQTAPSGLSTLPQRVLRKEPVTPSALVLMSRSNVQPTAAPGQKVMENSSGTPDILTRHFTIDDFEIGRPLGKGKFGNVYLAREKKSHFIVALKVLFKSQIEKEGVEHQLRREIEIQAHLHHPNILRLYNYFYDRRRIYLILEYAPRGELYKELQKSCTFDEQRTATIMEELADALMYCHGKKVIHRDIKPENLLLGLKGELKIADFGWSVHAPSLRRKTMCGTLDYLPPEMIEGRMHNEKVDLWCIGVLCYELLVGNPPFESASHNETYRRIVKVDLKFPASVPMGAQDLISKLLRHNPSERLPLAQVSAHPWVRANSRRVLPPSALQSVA

In the case of `C=C1CCCCCCCCCC(CO)C1=O` (stereo not shown) [EP009, 2-(Hydroxymethyl)-12-methylenecyclododecanone], the “Kinase Activity (% of Control)” value [1] is reported as 100 % of Control, the “Kinase Activity (% of Control)” value [2] is reported as 100 % of Control and the “Kinase Activity (% of Control)” value [3] is reported as 100 % of Control. For the same molecule, the “Kinase Activity (% of Control)” value [4] was 91 % of Control, the “Kinase Activity (% of Control)” value [5] was 85 % of Control and the “Kinase Activity (% of Control)” value [6] was 100 % of Control. The “Kinase Activity (% of Control)” value [7] was 100 % of Control, the “Kinase Activity (% of Control)” value [8] was 100 % of Control and the “Kinase Activity (% of Control)” value [9] was 100 % of Control. The “Kinase Activity (% of Control)” value [10] was 94 % of Control, the IC50 [11] was 1000 to 2500 nM and the “Kinase Activity (% of Control)” value [12] was 82 % of Control. The “Kinase Activity (% of Control)” value [13] was 76 % of Control, the “Kinase Activity (% of Control)” value [14] was 99 % of Control and the “Kinase Activity (% of Control)” value [15] was 99 % of Control. For the same molecule, the PARP cleavage [16] was “increased”.
